Measured values published in publication PMC3793931 (PLoS ONE, 2013).
Like-named read-outs stand apart in the source and are kept apart here.

Key:
[1] = system: 5-LO; details: cited from earlier work
[2] = molecular target: T1, microsomal prostaglandin E2 synthase-1 (mPGES-1) (Homo sapiens, UniProt O14684); assay: biochemical; details: cell-free, A549 microsomes; n=3; >10 = significant inhibition at 10 µM, >>10 = no significant inhibition at 10 µM
T1 sequence (O14684 1-152): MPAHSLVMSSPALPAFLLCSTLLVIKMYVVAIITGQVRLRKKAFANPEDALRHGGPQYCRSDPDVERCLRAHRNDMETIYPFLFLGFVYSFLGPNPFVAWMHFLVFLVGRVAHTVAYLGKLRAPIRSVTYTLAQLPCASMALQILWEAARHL

[3] = molecular target: T2, human recombinant 5-LO (Homo sapiens, UniProt P09917); assay: cell-free 5-LO activity assay with purified human recombinant 5-LO
T2 sequence (P09917 1-674): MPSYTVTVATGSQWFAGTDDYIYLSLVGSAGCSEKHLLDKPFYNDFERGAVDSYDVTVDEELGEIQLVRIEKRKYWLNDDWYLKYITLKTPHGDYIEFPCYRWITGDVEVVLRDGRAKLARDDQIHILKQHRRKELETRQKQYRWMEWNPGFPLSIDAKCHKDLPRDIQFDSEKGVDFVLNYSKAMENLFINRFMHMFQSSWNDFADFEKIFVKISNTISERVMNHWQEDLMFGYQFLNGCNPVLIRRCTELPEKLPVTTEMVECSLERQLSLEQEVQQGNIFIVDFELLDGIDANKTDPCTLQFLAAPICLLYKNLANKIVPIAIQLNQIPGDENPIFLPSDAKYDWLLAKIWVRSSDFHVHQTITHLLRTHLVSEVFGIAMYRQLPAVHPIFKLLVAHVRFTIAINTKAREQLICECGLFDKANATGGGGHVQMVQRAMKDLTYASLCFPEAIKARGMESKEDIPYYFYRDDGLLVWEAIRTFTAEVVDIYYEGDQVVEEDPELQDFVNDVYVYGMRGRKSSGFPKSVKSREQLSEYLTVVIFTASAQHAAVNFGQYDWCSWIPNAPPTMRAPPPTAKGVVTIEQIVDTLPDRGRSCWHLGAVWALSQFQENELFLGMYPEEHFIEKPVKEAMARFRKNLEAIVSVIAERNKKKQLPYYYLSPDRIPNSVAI

[4] = molecular target: T3, 5-LO in PMNL (Homo sapiens, UniProt P09917); assay: cell-based; details: intact human PMNL, A23187 2.5 µM + 20 µM AA, n=3, >10 = significant inhibition at 10 µM, >>10 = no significant inhibition at 10 µM
T3 sequence (P09917 1-674): T2 sequence (P09917 1-674)

[5] = system: NF-κB; assay: NF-κB transactivation, luciferase reporter in TNF-α-stimulated HEK-293/NF-κB-luc cells; format: cell-based; details: Homo sapiens
Description: The transactivation of a NF-κB-driven luciferase reporter gene was quantified in HEK-293/NF-κB-luc cells (Panomics, RC0014) as previously described. […] Six hours later cells were seeded in 96-well plates and incubated at 37°C and 5% CO2 overnight. On the next day, the medium was exchanged with serum-free DMEM and cells were treated with the respective test compounds dissolved in DMSO. To account for potential unspecific effects of the solvent, the final concentration of DMSO was always adjusted to 0.1%. One hour after treatment the cells were stimulated with 2 ng/mL human recombinant TNF-α for 6 h, and after a lysis step the luminescence of the firefly luciferase and the fluorescence of EGFP were quantified on a GeniosPro plate reader (Tecan; Grödig, Austria). The luciferase signal derived from the NF-κB reporter was normalized by the EGFP-derived fluorescence to account for differences in cell number.
To estimate of cell viability one part of the experiments were performed in cells that were not transfected with pEGFP-C1, but instead stained for 1 h in serum-free medium supplemented with 2 μM Cell Tracker Green CMFDA (C2925; Invitrogen) as described. Since this fluorescent probe is retained inside living cells, it can be used to monitor cell membrane integrity and thus has been broadly used to quantify viable cells. For quantification of NF-κB activity in this experimental setting the luciferase-derived signal from the NF-κB reporter was normalized to the Cell Tracker Green CMFDA-derived fluorescence to account for differences in cell number. Potential differences in cell viability were monitored by comparison of the Cell Tracker Green CMFDA fluorescence of the solvent vehicle treated control cells and cells treated with the indicated compounds.

[6] = system: COX-2; design: method as in PMID 19289158; details: at 45 µM; cited from earlier work
[7] = system: COX-1; design: method as in PMID 19289158; details: at 45 µM; cited from earlier work
[8] = molecular target: T4, inhibitor of NF-κB kinase subunit beta (IKK2) (Homo sapiens, UniProt O14920); assay: IKK2 kinase inhibition; format: biochemical; details: at a concentration of up to 50 μM; data not shown
T4 sequence (O14920 1-756): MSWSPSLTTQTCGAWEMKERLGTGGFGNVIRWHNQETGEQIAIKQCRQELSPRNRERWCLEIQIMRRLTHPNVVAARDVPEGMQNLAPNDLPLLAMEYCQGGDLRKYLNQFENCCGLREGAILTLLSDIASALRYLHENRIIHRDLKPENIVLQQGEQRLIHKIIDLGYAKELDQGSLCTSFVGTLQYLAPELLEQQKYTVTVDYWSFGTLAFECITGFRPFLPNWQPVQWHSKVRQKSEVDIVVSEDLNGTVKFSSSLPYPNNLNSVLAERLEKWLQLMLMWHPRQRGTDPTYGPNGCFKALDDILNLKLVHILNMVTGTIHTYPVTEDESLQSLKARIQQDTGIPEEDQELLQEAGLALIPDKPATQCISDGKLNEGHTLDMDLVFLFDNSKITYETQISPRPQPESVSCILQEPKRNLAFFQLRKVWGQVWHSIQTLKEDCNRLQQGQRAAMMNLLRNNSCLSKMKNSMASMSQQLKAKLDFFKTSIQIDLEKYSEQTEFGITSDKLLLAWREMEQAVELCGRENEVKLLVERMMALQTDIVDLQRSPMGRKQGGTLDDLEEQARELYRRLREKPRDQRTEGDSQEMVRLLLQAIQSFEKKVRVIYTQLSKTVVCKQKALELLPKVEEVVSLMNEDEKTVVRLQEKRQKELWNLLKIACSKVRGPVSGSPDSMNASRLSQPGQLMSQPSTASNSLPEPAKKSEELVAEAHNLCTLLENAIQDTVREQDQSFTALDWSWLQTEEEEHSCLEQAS
Text: Luciferase reporter gene expression reflects a downstream event of the NF-κB signaling cascade and cannot provide insights into the molecular targets contributing to the observed NF-κB inhibition. Thus, we tested the active compounds 4 and 5 for their potential to suppress the activity of the inhibitor of NF-κB kinase subunit beta (IKK2) as previously described, since it is a prominent upstream target of the NF-κB signaling cascade. […] Accordingly, this kinase is not a direct target of the NF-κB inhibiting depsides 4 and 5.

[9] = system: leukocyte recruitment to the peritoneum; assay: thioglycollate-induced peritonitis, leukocyte count in peritoneal lavage; format: in vivo, C57BL/6J mice; details: mouse
Text: C57BL/6J male, 8-9 weeks old mice were housed in individually ventilated cages and fed with mouse chow and acidified water ad libitum in the mouse facility of the Institute of Vascular Biology and Thrombosis Research (Vienna, Austria). Animal care and all experimental procedures were approved by the Animal Experimental Committee of the Medical University of Vienna and by the Austrian Ministry of Science (license no. BMWF-66.009/0117-II/3b/2012).
The mice of the treatment groups – sterile thioglycollate and perlatolic acid or thioglycollate alone - (3 animals per group) were pre-treated i.p. with 1 mL of 6 µM perlatolic acid or 1 µL of DMSO dissolved in 1 mL of saline. Thirty minutes later the animals were injected i.p. with another 3 mL of saline with or without sterile thioglycollate (4%), and containing again 2 μL DMSO or perlatolic acid. Five hours after the second injection mice were sacrificed by carbon dioxide exposure and peritoneal cavities were washed three times with 2 mL of cold PBS containing 3 mM EDTA and collected as intra-peritoneal lavage. The leukocyte count in the peritoneum of untreated control mice was assessed by lavage. Mice without thioglycollate treatment were used as controls. The volume of the collected lavage was measured and the cell count determined by haemocytometer.

[10] = system: B16-F10 melanoma cells; details: cited from earlier work
[11] = system: UACC-62 melanoma cells; details: cited from earlier work
[12] = system: 12-LO; design: method as in PMID 15636173; details: cited from earlier work
[13] = HEK293, TNF-α-stimulated HEK-293/NF-κB-luc cells, n=3, read-out: NF-κB IC50

Row | IC50 [3] | SMILES | IC50 [2] | IC50 [4] | further results
1 | – | COc1cc(C)c(C(=O)Oc2cc(C)c(C(=O)O)c(O)c2C)c(O)c1C=O [baeomycesic acid] | – | – | IC50 ([1]; read-out: 5-LO IC50): 8.3 µM
2 | 7.6 µM | CCOC(=O)c1c(C)cc(O)c(C=O)c1O [compound 1, ethyl haematommate] | > 10 µM | > 10 µM | –
3 | > 10 µM | COC(=O)c1c(C)cc(O)c(C)c1O [compound 2, methylbetaorcinolcarboxylate] | > 10 µM | > 10 µM | –
4 | > 10 µM | CCCCCc1cc(OC)cc(O)c1C(=O)O [compound 6, 4-O-metylolivetolcarboxylic acid] | > 10 µM | > 10 µM | –
5 | > 10 µM | CCCCCc1cc(OC)cc(O)c1C(=O)OCC [compound 7, ethyl-4-O-methylolivetolcarboxylate] | > 10 µM | > 10 µM | –
6 | 7.2 µM | CCCCCc1cc(O)cc(OC)c1 [compound 9, olivetolmonomethylether] | > 10 µM | > 10 µM | –
7 | – | CCCCCc1cc(O)cc(O)c1 [compound 10, olivetol] | > 10 µM | > 10 µM | –
8 | – | CCCc1cc(O)cc(O)c1 [compound 11, divarinol] | > 10 µM | > 10 µM | –
9 | – | CCCCCc1c2c(cc(O)c1C(=O)O)OC(=O)c1c(cc(OC)cc1C(=O)CCCC)O2 [lobaric acid] | – | – | IC50 ([1]; read-out: 5-LO IC50): ≥ 28.5 µM; IC50 [12]: ≥ 28.5 µM
10 | – | C=C1C(=O)O[C@H]2[C@H]1CC/C(C)=C/CC[C@@]1(C)O[C@@H]21 [parthenolide, reference compound] | – | – | IC50 [5, 13]: 1.5 µM

Row | SMILES | IC50 [3] | IC50 [2] | IC50 [4] | further results
12 | COC(=O)c1c(C)cc(OC(=O)c2c(C)cc(O)c(C=O)c2O)c(C)c1O [compound 3, atranorin] | > 10 µM | > 10 µM | > 10 µM | activity against 5-LO [1]: inactive; IC50 [5, 13]: 20 µM; COX-2 inhibition [6]: ~45%; COX-1 inhibition [7]: ~45%
13 | CCCCCc1cc(OC)cc(O)c1C(=O)Oc1cc(O)c(C(=O)O)c(CCC)c1 [compound 4, imbricaric acid] | 3.5 µM | 1.9 µM | 5.3 µM | IKK2 inhibition [8]: did not inhibit IKK2; IC50 ([5]; HEK293, read-out: NF-κB IC50): 2 µM
14 | CCCCCc1cc(OC(=O)c2c(O)cc(OC)cc2CCCCC)cc(O)c1C(=O)O [compound 5, perlatolic acid] | 0.4 µM | 0.4 µM | 1.8 µM | reduction of thioglycollate-induced increase in total leukocyte count in peritoneal lavage fluid ([9]; i.p. co-administration, 5 h after TG injection, n=3, p<0.05): 30-40%; toxic effects observed in the animals ([9]; i.p., acute inflammation model): no hints of toxic effects; IKK2 inhibition [8]: did not inhibit IKK2; IC50 [5, 13]: 7 µM; cytotoxicity on B16-F10 melanoma cells [10]: moderate selective cytotoxicity; cytotoxicity on UACC-62 melanoma cells [11]: moderate selective cytotoxicity
15 | CCCCCc1cc(O)cc(O)c1C(=O)OCC [compound 8, ethyl olivetolate] | > 10 µM | > 10 µM | 6.8 µM | –
